Measured values published in patent US5981497A, “Utilization of sophorolipids as therapeutically active substances or cosmetic products, in particular for the treatment of the skin” (Institut Francais du Petrole, priority 1995, dated 1999).

What was measured:
[1] = Cytotoxicity on L929 at 24 hours (neutral red); type: cell-based; conditions: mouse, l929 cells, read-out: Cellular Viability Rate; for viability at 24 h, 50000 µM: 5.10-2M; for viability at 24 h, 5000 µM: 5.10-3M; for viability at 24 h, 500 µM: 5.10-4M; for viability at 24 h, 10000 µM: 10^-2M; for viability at 24 h, 1000 µM: 10^-3M; for viability at 24 h, 100 µM: 10^-4M; for viability at 24 h, 10 µM: 10^-5M
Text: (§1) Their innocuousness and their activity make it possible to use them in other stages of healing, namely granulation and epithelialization, by modulating their concentration in the formulas of products that are used. This is possible only because of the low cytotoxicity of sophorolipids, as Tables 3A and 3B show. The toxicity of the products of the invention has been evaluated with a viability test with neutral red on two cellular types of the skin, cells L929 and other fibroblasts of the dermis and cells NCTC 2544 and keratinocytes of the epidermis. The results, which are presented in Tables 3A, 3B, correspond to the rates of cellular viability that are expressed in % relative to the negative test.

[2] = system: keratinocyte culture (detachment of corneocytes); assay: Desquamating test, detachment of corneocytes in vitro; type: cell-based; conditions: for T60-T0 mean difference: p less than 0.001; for activity at 100 µM / activity at 10 µM / activity at 1 µM: Keratinocyte, read-out: %/TN, proportion of detached corneocytes relative to the negative test
Text: Variation coefficient CV is obtained as follows: [formula]
Actually, the therapeutic applications incidentally involve cosmetic applications.

[3] = Cytotoxicity on NCTC2544 at 24 hours (neutral red); type: cell-based; conditions: human, nctc2544 cells, read-out: Cellular Viability Rate; for viability at 24 h, 50000 µM: 5.10-2M; for viability at 24 h, 5000 µM: 5.10-3M; for viability at 24 h, 500 µM: 5.10-4M; for viability at 24 h, 10000 µM: 10^-2M; for viability at 24 h, 1000 µM: 10^-3M; for viability at 24 h, 100 µM: 10^-4M; for viability at 24 h, 10 µM: 10^-5M
Text: as §1

[4] = molecular target: T1, fibrin clot reconstituted with bovine thrombin and human fibrinogen (Homo sapiens, UniProt P02671+P02675+P02679); assay: Fibrinolysis in vitro (lysis of fibrin clot); type: biochemical;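 further: values are percent lysis of the fibrin clot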
T1 sequence (P02671 20-644 isoform P02671-2 limits assumed): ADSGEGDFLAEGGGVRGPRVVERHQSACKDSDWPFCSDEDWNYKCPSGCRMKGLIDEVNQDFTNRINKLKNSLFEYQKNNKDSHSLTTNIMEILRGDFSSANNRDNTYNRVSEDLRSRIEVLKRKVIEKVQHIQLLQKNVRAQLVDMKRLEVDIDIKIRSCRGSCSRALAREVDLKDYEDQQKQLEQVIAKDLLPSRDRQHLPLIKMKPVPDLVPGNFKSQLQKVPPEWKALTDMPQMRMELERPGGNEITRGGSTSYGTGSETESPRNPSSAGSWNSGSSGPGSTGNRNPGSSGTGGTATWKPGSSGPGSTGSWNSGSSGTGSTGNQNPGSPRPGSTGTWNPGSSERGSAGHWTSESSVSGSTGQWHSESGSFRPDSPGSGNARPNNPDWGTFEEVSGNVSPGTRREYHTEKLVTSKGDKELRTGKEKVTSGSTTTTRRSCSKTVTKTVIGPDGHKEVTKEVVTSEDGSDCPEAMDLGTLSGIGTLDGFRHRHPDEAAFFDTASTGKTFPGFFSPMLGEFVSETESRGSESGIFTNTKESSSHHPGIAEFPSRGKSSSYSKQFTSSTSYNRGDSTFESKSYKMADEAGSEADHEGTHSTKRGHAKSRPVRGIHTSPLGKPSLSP
T1 sequence (P02675 45-491 limits assumed): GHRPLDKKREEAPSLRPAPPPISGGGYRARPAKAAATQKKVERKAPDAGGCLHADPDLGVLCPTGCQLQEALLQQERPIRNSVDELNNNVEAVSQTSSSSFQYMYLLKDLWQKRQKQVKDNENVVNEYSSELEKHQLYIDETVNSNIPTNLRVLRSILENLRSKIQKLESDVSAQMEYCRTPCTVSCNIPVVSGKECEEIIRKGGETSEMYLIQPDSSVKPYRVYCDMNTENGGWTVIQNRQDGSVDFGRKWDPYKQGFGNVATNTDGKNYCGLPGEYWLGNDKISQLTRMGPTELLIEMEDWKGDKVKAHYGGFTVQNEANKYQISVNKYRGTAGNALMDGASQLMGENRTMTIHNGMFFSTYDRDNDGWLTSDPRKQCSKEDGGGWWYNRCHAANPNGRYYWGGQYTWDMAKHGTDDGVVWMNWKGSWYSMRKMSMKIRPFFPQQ
T1 sequence (P02679 27-437 isoform P02679-2 limits assumed): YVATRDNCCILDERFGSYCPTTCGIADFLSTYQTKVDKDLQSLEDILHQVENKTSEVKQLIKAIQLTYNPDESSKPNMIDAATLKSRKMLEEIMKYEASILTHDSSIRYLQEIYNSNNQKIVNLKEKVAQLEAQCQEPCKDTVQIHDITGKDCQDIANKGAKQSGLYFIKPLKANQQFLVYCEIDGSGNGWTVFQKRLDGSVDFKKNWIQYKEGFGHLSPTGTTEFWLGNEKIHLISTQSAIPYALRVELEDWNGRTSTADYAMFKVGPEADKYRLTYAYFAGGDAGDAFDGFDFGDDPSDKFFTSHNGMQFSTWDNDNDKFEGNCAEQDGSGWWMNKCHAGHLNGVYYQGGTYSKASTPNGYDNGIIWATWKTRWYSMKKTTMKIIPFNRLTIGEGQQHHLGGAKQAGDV
Experimental: They also act directly on necrotic plaque. […] This lysis was measured from a fibrin clot that was reconstituted with bovine thrombin and human fibrinogen. The clot that is obtained is covered by 0.5 ml of PBS that contains the sample. The modification of the fibrin gel thickness at 4 hours and 24 hours makes it possible to quantify the fibrinolytic activity. This activity will therefore promote fibrinolysis at wounds, making it possible to act on the bedsore spot and to induce better granulation, as well as better organic tissue oxygenation. Moreover, owing to their surfactant property, sophorolipids make the fragments, molecules, soluble and detach the dead cells from the bed of the wound. This last action is more particularly due to their role in desquamation, which will be described below.

in vitro = conditions: keratinocyte culture
Experimental: A keratinocyte culture that was placed under conditions that promote the differentiation of cells was selected as a cellular model for the study. The actions of sophorolipids in acid form A, sophorolipids in lactone form B, and lactic acid on the detachment of corneocytes of the selected cellular model were tested in vitro in parallel. In each experiment, the mean difference T60-T0 (corneocytes/ml), as well as the proportion of detached corneocytes, expressed in percentage relative to the negative test (%/TN), were determined.
Cellular viability, measured with the Neutral Red test, is expressed relative to the negative test (%).

[5] = Cytotoxicity on primocultures at 24 hours (neutral red), fibroblasts; type: cell-based; conditions: fibroblasts, 24 hours, read-out: Cellular Viability Rate; for viability at 24 h, 1000 µM: 10^-3M; for viability at 24 h, 100 µM: 10^-4M; for viability at 24 h, 10 µM: 10^-5M; for viability at 24 h, 1 µM: 10^-6M
Text: as §1

SMILES | viability at 24 h, 50000 µM [1] [%] | viability at 24 h, 5000 µM [1] [%] | viability at 24 h, 500 µM [1] [%] | viability at 24 h, 10000 µM [1] [%] | viability at 24 h, 1000 µM [1] [%] | viability at 24 h, 100 µM [1] [%] | viability at 24 h, 10 µM [1] [%] | T60-T0 mean difference ([2]; 10^-4M) [corneocytes/ml] | T60-T0 mean difference ([2]; 10^-5M) [corneocytes/ml] | T60-T0 mean difference ([2]; 10^-6M) [corneocytes/ml] | activity at 100 µM ([2]; 10^-4M) [%] | activity at 10 µM ([2]; 10^-5M) [%] | activity at 1 µM ([2]; 10^-6M) [%] | viability at 24 h, 50000 µM [3] [%] | viability at 24 h, 5000 µM [3] [%] | viability at 24 h, 500 µM [3] [%] | viability at 24 h, 10000 µM [3] [%] | viability at 24 h, 1000 µM [3] [%] | viability at 24 h, 100 µM [3] [%] | viability at 24 h, 10 µM [3] [%] | further results
CC1CCCCCC/C=C\CCCCCCCC(=O)O[C@H]2[C@H](O)[C@@H](O)[C@H](O[C@H]3[C@H](O1)O[C@H](CO)[C@@H](O)[C@@H]3O)O[C@@H]2CO (some centres unmarked) [Sophorolipid in Lactone Form] | 5.65 | 5.44 | 6.63 | 5.26 | 5.71 | 87 | 96.5 | 2389 | 1833 | 1528 | 205 | 157 | 131 | 5.86 | 6.44 | 8.7 | 6.49 | 6.17 | 85.2 | 95.5 | Lysis of the fibrin clot ([4]; 4 hours, 30% MS): 15 % relative to TN; Lysis of the fibrin clot ([4]; 24 hours, 30% MS): 33 % relative to TN; viability at 1 µM (in vitro): 98.8%; viability at 10 µM (in vitro): 101%; viability at 100 µM (in vitro): 99.1%; viability at 24 h, 1000 µM [5]: 5.96%; viability at 24 h, 100 µM [5]: 91.2%; viability at 24 h, 10 µM [5]: 100%; viability at 24 h, 1 µM [5]: 101%
CC(CCCCCC/C=C\CCCCCCCC(=O)O)O[C@@H]1O[C@H](CO)[C@@H](O)[C@H](O)[C@H]1O[C@@H]1O[C@H](CO)[C@@H](O)[C@H](O)[C@H]1O (some centres unmarked) [Sophorolipid in Acid Form] | 5.47 | 7.62 | 99.2 | 6.18 | 100 | 102 | 101 | 2278 | 1944 | 1555 | 195 | 167 | 133 | 6.35 | 8.34 | 99.9 | 7.12 | 100 | 100 | 101 | Lysis of the fibrin clot ([4]; 4 hours, 10% MS): 75 % relative to TN; Lysis of the fibrin clot ([4]; 4 hours, 10-1M): 66 % relative to TN; Lysis of the fibrin clot ([4]; 4 hours, 10^-2M): 5 % relative to TN; Lysis of the fibrin clot ([4]; 4 hours, 10^-3M): 0 % relative to TN; Lysis of the fibrin clot ([4]; 4 hours, 10^-4M): 0 % relative to TN; Lysis of the fibrin clot ([4]; 4 hours, 10^-5M): 0 % relative to TN; Lysis of the fibrin clot ([4]; 24 hours, 10% MS): 90 % relative to TN; Lysis of the fibrin clot ([4]; 24 hours, 10-1M): 80 % relative to TN; Lysis of the fibrin clot ([4]; 24 hours, 10^-2M): 40 % relative to TN; Lysis of the fibrin clot ([4]; 24 hours, 10^-3M): 20 % relative to TN; Lysis of the fibrin clot ([4]; 24 hours, 10^-4M): 5 % relative to TN; Lysis of the fibrin clot ([4]; 24 hours, 10^-5M): 0 % relative to TN; viability at 1 µM (in vitro): 99.6%; viability at 10 µM (in vitro): 99.8%; viability at 100 µM (in vitro): 98.7%; viability at 24 h, 1000 µM [5]: 85.7%; viability at 24 h, 100 µM [5]: 98.3%; viability at 24 h, 10 µM [5]: 98.7%; viability at 24 h, 1 µM [5]: 99.7%
